Measured values: ChEMBL document CHEMBL1629673, “Role of known molecular markers of resistance in the antimalarial potency of piperaquine and dihydroartemisinin in vitro” (Antimicrob Agents Chemother, 2009)

Tests used:
Plasmodium falciparum [1] = assay: Antiplasmodial activity against chloroquine-resistant Plasmodium falciparum K1 infected in erythrocytes assessed as [3H]hypoxanthine incorporation in presence of piperaquine; type: functional
Plasmodium falciparum [2] = assay: Antiplasmodial activity against chloroquine-resistant Plasmodium falciparum TM6 infected in erythrocytes assessed as [3H]hypoxanthine incorporation in presence of piperaquine; type: functional
Plasmodium falciparum [3] = assay: Antiplasmodial activity against chloroquine-resistant Plasmodium falciparum 7G8 infected in erythrocytes assessed as [3H]hypoxanthine incorporation in presence of piperaquine; type: functional
Plasmodium falciparum [4] = assay: Antiplasmodial activity against chloroquine-sensitive Plasmodium falciparum 3D7 infected in erythrocytes assessed as [3H]hypoxanthine incorporation in presence of piperaquine; type: functional
Plasmodium falciparum [5] = assay: Antiplasmodial activity against chloroquine-resistant Plasmodium falciparum C6harboring 7G8 pfcrt allele infected in erythrocytes assessed as [3H]hypoxanthine incorporation in presence of piperaquine; type: functional, C6
Plasmodium falciparum [6] = assay: Antiplasmodial activity against chloroquine-sensitive Plasmodium falciparum D10 harboring 7G8 pfcrt allele infected in erythrocytes assessed as [3H]hypoxanthine incorporation in presence of piperaquine; type: functional
Plasmodium falciparum [7] = assay: Antiplasmodial activity against chloroquine-resistant Plasmodium falciparum 7G8 harboring parental pfcrt allele infected in erythrocytes assessed as [3H]hypoxanthine incorporation in presence of piperaquine; type: functional
Plasmodium falciparum [8] = assay: Antiplasmodial activity against chloroquine-resistant Plasmodium falciparum 7G8 harboring D10 pfcrt allele infected in erythrocytes assessed as [3H]hypoxanthine incorporation in presence of piperaquine; type: functional
Plasmodium falciparum [9] = assay: microbe, parasite or virus in culture; conditions: K1, 3 h
Plasmodium falciparum [10] = assay: microbe, parasite or virus in culture; conditions: TM6, 3 h
Plasmodium falciparum [11] = assay: microbe, parasite or virus in culture; conditions: 7G8, 3 h
Plasmodium falciparum [12] = assay: microbe, parasite or virus in culture; conditions: 3D7, 3 h
Plasmodium falciparum [13] = assay: microbe, parasite or virus in culture; conditions: C2, 3 h
Plasmodium falciparum [14] = assay: microbe, parasite or virus in culture; conditions: C3, 3 h
Plasmodium falciparum [15] = assay: microbe, parasite or virus in culture; conditions: C6, 3 h
Plasmodium falciparum [16] = assay: microbe, parasite or virus in culture; conditions: D10, 3 h
Plasmodium falciparum [17] = assay: microbe, parasite or virus in culture; conditions: D10, 3 h; remark: listed apart in the source
Plasmodium falciparum [18] = assay: microbe, parasite or virus in culture; conditions: 7G8, 3 h; remark: listed apart in the source
Plasmodium falciparum [19] = assay: microbe, parasite or virus in culture; conditions: 7G8, 3 h; remark: listed apart in the source
Plasmodium falciparum [20] = assay: Antiplasmodial activity against chloroquine-resistant Plasmodium falciparum K1 infected in erythrocytes assessed as [3H]hypoxanthine incorporation in presence of dihydroartimisinin; type: functional
Plasmodium falciparum [21] = assay: Antiplasmodial activity against chloroquine-resistant Plasmodium falciparum TM6 infected in erythrocytes assessed as [3H]hypoxanthine incorporation in presence of dihydroartimisinin; type: functional
Plasmodium falciparum [22] = assay: Antiplasmodial activity against chloroquine-resistant Plasmodium falciparum 7G8 infected in erythrocytes assessed as [3H]hypoxanthine incorporation in presence of dihydroartimisinin; type: functional
Plasmodium falciparum [23] = assay: Antiplasmodial activity against chloroquine-sensitive Plasmodium falciparum 3D7 infected in erythrocytes assessed as [3H]hypoxanthine incorporation in presence of dihydroartimisinin; type: functional
Plasmodium falciparum [24] = assay: Antiplasmodial activity against chloroquine-sensitive Plasmodium falciparum C2 infected in erythrocytes assessed as [3H]hypoxanthine incorporation in presence of dihydroartimisinin; type: functional
Plasmodium falciparum [25] = assay: Antiplasmodial activity against chloroquine-resistant Plasmodium falciparum C3 harboring Dd2 pfcrt allele infected in erythrocytes assessed as [3H]hypoxanthine incorporation in presence of dihydroartimisinin; type: functional
Plasmodium falciparum [26] = assay: Antiplasmodial activity against chloroquine-resistant Plasmodium falciparum C6harboring 7G8 pfcrt allele infected in erythrocytes assessed as [3H]hypoxanthine incorporation in presence of dihydroartimisinin; type: functional, C6
Plasmodium falciparum [27] = assay: Antiplasmodial activity against chloroquine-sensitive Plasmodium falciparum D10 infected in erythrocytes assessed as [3H]hypoxanthine incorporation in presence of dihydroartimisinin; type: functional
Plasmodium falciparum [28] = assay: Antiplasmodial activity against chloroquine-sensitive Plasmodium falciparum D10 harboring 7G8 pfcrt allele infected in erythrocytes assessed as [3H]hypoxanthine incorporation in presence of dihydroartimisinin; type: functional
Plasmodium falciparum [29] = assay: Antiplasmodial activity against chloroquine-resistant Plasmodium falciparum 7G8 harboring parental pfcrt allele infected in erythrocytes assessed as [3H]hypoxanthine incorporation in presence of dihydroartimisinin; type: functional
Plasmodium falciparum [30] = assay: Antiplasmodial activity against chloroquine-resistant Plasmodium falciparum 7G8 harboring D10 pfcrt allele infected in erythrocytes assessed as [3H]hypoxanthine incorporation in presence of dihydroartimisinin; type: functional
Plasmodium falciparum [31] = assay: Selectivity ratio of IC50 for chloroquine-resistant Plasmodium falciparum C3 harboring Dd2 pfcrt allele to IC50 for chloroquine-sensitive Plasmodium falciparum C2; type: functional

Q: For `C[C@H]1[C@@H](O)O[C@@H]2O[C@@]3(C)CC[C@H]4[C@H](C)CC[C@@H]1[C@@]24OO3` [ARTENIMOL], which “fractional inhibitory concentration index (FICI)” value (Plasmodium falciparum [1]) is on record?
A: 1.27

Q: What about the “fractional inhibitory concentration index (FICI)” value (Plasmodium falciparum [2]) of the same compound?
A: 1.25

Q: What about the “fractional inhibitory concentration index (FICI)” value (Plasmodium falciparum [3]) of the same compound?
A: 2.86

Q: What about the “fractional inhibitory concentration index (FICI)” value (Plasmodium falciparum [4]) of the same compound?
A: 2.4

Q: And the “fractional inhibitory concentration index (FICI)” value (Plasmodium falciparum [5])?
A: 2.51

Q: What about the “fractional inhibitory concentration index (FICI)” value (Plasmodium falciparum [6]) of the same compound?
A: 1.34

Q: What about the “fractional inhibitory concentration index (FICI)” value (Plasmodium falciparum [7]) of the same compound?
A: 0.8

Q: And the “fractional inhibitory concentration index (FICI)” value (Plasmodium falciparum [8])?
A: 1.34

Q: What about the IC50 (Plasmodium falciparum [9]) of the same compound?
A: 1 nM

Q: What about the IC50 (Plasmodium falciparum [10]) of the same compound?
A: 1 nM

Q: What about the IC50 (Plasmodium falciparum [11]) of the same compound?
A: 1.3 nM

Q: And the IC50 (Plasmodium falciparum [12])?
A: 0.6 nM

Q: What about the IC50 (Plasmodium falciparum [13]) of the same compound?
A: 0.8 nM

Q: And the IC50 (Plasmodium falciparum [14])?
A: 1 nM

Q: What about the IC50 (Plasmodium falciparum [15]) of the same compound?
A: 0.3 nM

Q: And the IC50 (Plasmodium falciparum [16])?
A: 0.7 nM

Q: And the IC50 (Plasmodium falciparum [17])?
A: 0.7 nM

Q: And the IC50 (Plasmodium falciparum [18])?
A: 0.6 nM

Q: And the IC50 (Plasmodium falciparum [19])?
A: 1.3 nM

Q: What does the source list for `Clc1ccc2c(N3CCN(CCCN4CCN(c5ccnc6cc(Cl)ccc56)CC4)CC3)ccnc2c1` [PIPERAQUINE]?
A: fractional inhibitory concentration index (FICI) (Plasmodium falciparum [20]): 1.27; fractional inhibitory concentration index (FICI) (Plasmodium falciparum [21]): 1.25; fractional inhibitory concentration index (FICI) (Plasmodium falciparum [22]): 2.86; fractional inhibitory concentration index (FICI) (Plasmodium falciparum [23]): 2.4; fractional inhibitory concentration index (FICI) (Plasmodium falciparum [24]): 1.59; fractional inhibitory concentration index (FICI) (Plasmodium falciparum [25]): 1.7; fractional inhibitory concentration index (FICI) (Plasmodium falciparum [26]): 2.51; fractional inhibitory concentration index (FICI) (Plasmodium falciparum [27]): 1.48; fractional inhibitory concentration index (FICI) (Plasmodium falciparum [28]): 1.34; fractional inhibitory concentration index (FICI) (Plasmodium falciparum [29]): 0.8; fractional inhibitory concentration index (FICI) (Plasmodium falciparum [30]): 1.34; fold change (FC) (Plasmodium falciparum [31]): 3; IC50 (Plasmodium falciparum [9]): 13.4 nM; IC50 (Plasmodium falciparum [10]): 15.8 nM; IC50 (Plasmodium falciparum [11]): 11.2 nM; IC50 (Plasmodium falciparum [12]): 3.4 nM; IC50 (Plasmodium falciparum [13]): 3.9 nM; IC50 (Plasmodium falciparum [14]): 11.5 nM; IC50 (Plasmodium falciparum [15]): 6.6 nM; IC50 (Plasmodium falciparum [16]): 8.1 nM; IC50 (Plasmodium falciparum [18]): 9.1 nM; IC50 (Plasmodium falciparum [19]): 12 nM
